Laboratory results: patent US20260232767A1, “INTERLEUKIN-23 RECEPTOR ANTAGONIST PEPTIDES FOR USE IN THE TREATMENT OF PSORIASIS” (Janssen Pharmaceutica NV, priority 2023, published 2026)

What was measured:
[1] = tested on: subjects with moderate-to-severe plaque psoriasis; assay: DLQI, Example 1; assay type: in vivo, human; settings: each dose group vs placebo; Week 16
From the text: The Dermatological Life Quality Index (DLQI) is a dermatology-specific health-related quality of life (HRQoL) instrument designed to assess the impact of the disease on a participant's HRQoL. It is a 10-item questionnaire that assesses HRQoL over the past week and in addition to evaluating overall HRQoL, can be used to assess 6 different aspects that may affect quality of life: symptoms and feelings, daily activities, leisure, work or school performance, personal relationships, and treatment. The total score ranges from 0 to 30 with a higher score indicating greater impact on quality of life (QoL).
Efficacy, PK, immunogenicity, biomarker, pharmacogenomic, and safety criteria were measured during the treatment. Subjects were provided with an electronic device to enter patient-reported outcome (PRO) data at each study visit. All visit-specific PRO assessments were conducted/completed before any tests, procedures or other clinical assessments, with the exception of the urine pregnancy test and urinalysis, to prevent influencing subject perceptions.

[2] = tested on: subjects with moderate-to-severe plaque psoriasis; assay: Treatment disposition, Example 2; assay type: in vivo, human
[3] = 25 mg BID, Week 16 to Week 52, N=40
[4] = 25 mg BID, through Week 52, N=41
[5] = 25 mg QD, Week 16 to Week 52, N=35
[6] = 25 mg QD, through Week 52, N=43
[7] = 50 mg QD, through Week 52, N=43
[8] = 100 mg BID, through Week 52, N=42
[9] = 100 mg QD, Week 16 to Week 52, N=40
[10] = 100 mg QD, through Week 52, N=43
[11] = Combined, Week 16 to Week 52, N=227
[12] = Combined, through Week 52, N=247

Compound: CC(=O)NCCCC[C@@H]1NC(=O)[C@H](Cc2c[nH]c3c(C)cccc23)NC(=O)[C@H]([C@@H](C)O)NC(=O)[C@H](CC(N)=O)NC(=O)[C@@H](NC(C)=O)C(C)(C)SSC(C)(C)[C@@H](C(=O)N[C@@H](Cc2ccc(OCCN)cc2)C(=O)N[C@@H](Cc2ccc3ccccc3c2)C(=O)NC2(C(=O)N[C@@H](CCC(=O)O)C(=O)N[C@@H](CC(N)=O)C(=O)N[C@@H](Cc3cccnc3)C(=O)N(C)CC(N)=O)CCOCC2)NC1=O [IL-23 receptor antagonist peptide, Ac-[Pen]*-N-T-[W(7-Me)]-[Lys(Ac)]-[Pen]*-Phe[4-(2-aminoethoxy)]-[2-Nal]-[THP]-E-N-[3-Pal]-Sarc-NH2 (*[Pen]-[Pen]* formdisulfidebond)]
- Proportion achieving DLQI score of 0 or 1 [1]: significantly higher
- Discontinued: Adverse Event, % [2, 3]: (2.5%)
- Discontinued: Other Adverse Event, % [2, 3]: (2.5%)
- Discontinued: Adverse Event, % [2, 4]: (2.4%)
- Discontinued: Other Adverse Event, % [2, 4]: (2.4%)
- Discontinued: Adverse Event, % [2, 5]: (2.9%)
- Discontinued: Other Adverse Event, % [2, 5]: (2.9%)
- Discontinued: Adverse Event, % [2, 6]: (7.0%)
- Discontinued: Other Adverse Event, % [2, 6]: (7.0%)
- Discontinued: Adverse Event, % [2, 7]: (4.7%)
- Discontinued: Other Adverse Event, % [2, 7]: (4.7%)
- Discontinued: Adverse Event, % [2, 8]: (2.4%)
- Discontinued: Other Adverse Event, % [2, 8]: (2.4%)
- Discontinued: Adverse Event, % [2, 9]: (2.5%)
- Discontinued: Other Adverse Event, % [2, 9]: (2.5%)
- Discontinued: Adverse Event, % [2, 10]: (4.7%)
- Discontinued: Other Adverse Event, % [2, 10]: (4.7%)
- Discontinued: Adverse Event, % [2, 11]: (1.3%)
- Discontinued: Other Adverse Event, % [2, 11]: (1.3%)
- Discontinued: Adverse Event, % [2, 12]: (3.6%)
- Discontinued: Other Adverse Event, % [2, 12]: (3.6%)
